This passage reports Ki results from ChEMBL document CHEMBL1135841, “Use of parallel-synthesis combinatorial libraries for rapid identification of potent FKBP12 inhibitors” (Bioorg Med Chem Lett, 2002).

As usually defined, the Ki is the equilibrium dissociation constant of an inhibitor or competing ligand from its target. High values mean a looser hold on the target, low ones a stronger hold on the target.

A value given as a limit tells only on which side of the number the result lay.

Chain of Peptidyl-prolyl cis-trans isomerase FKBP1A (P62942 whole entry): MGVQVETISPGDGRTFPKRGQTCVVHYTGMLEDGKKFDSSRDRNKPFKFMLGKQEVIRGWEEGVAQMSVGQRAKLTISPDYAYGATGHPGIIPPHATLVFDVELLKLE

This assay has as its target Peptidyl-prolyl cis-trans isomerase FKBP1A (Homo sapiens, UniProt P62942). The assay can be described thus: Inhibition of peptidyl-prolyl isomerase (PPIase, or rotamase) activity of FK506 binding protein 12.
In turn, `O=C(OCCCc1ccc(Br)cc1)C1CCCCN1S(=O)(=O)Cc1ccccc1` (stereo not given) returned a Ki of 2700 nM. The result for `Cc1ccc(S(=O)(=O)N2CCCCC2C(=O)OCCCc2ccc(F)cc2)cc1` (stereo not given) reads 1400 nM; that for `O=C(OCc1ccccc1)[C@@H]1CCCN1C(=S)NC12C[C@H]3C[C@@H](C1)C[C@@H](C2)C3`, 18000 nM. The result for `COc1ccc(CCCOC(=O)C2CCCCN2S(=O)(=O)c2ccc(C)cc2)cc1` (stereo not given) reads 220 nM.

For `O=C(OCCCCc1ccccc1)[C@@H]1CCCN1C(=O)NC12C[C@H]3C[C@@H](C1)C[C@@H](C2)C3`, the affinity corresponds to a Ki of 470 nM. Regarding `COc1ccc(CCCOC(=O)C2CCCCN2S(=O)(=O)Cc2ccccc2)cc1` (stereo not given), the Ki was determined as 92 nM.

In turn, `O=C(OCCCc1ccc(Cl)cc1)C1CCCCN1S(=O)(=O)Cc1ccccc1` (stereo not given) yielded a Ki of 420 nM. To `O=C(OCCCc1ccc(F)cc1)[C@@H]1CCCN1/C(S)=N/C12C[C@H]3C[C@@H](C1)C[C@@H](C2)C3` belongs 850 nM; to `O=C(OCc1ccccc1)[C@@H]1CCCN1C(=O)Nc1ccccc1`, 24000 nM; to `C[C@@H](NC(=O)N1CCC[C@H]1C(=O)OCCCc1ccc(Br)cc1)c1ccccc1`, greater than 10000 nM. With `O=C(OCCCc1ccc(F)cc1)C1CCCCN1S(=O)(=O)Cc1ccccc1` (stereo not given), the affinity corresponds to a Ki of 320 nM. The result for `O=C(OCCCc1ccc(Br)cc1)C1CCCCN1S(=O)(=O)c1ccccc1` (stereo not given) reads 8000 nM. The molecule `C[C@@H](NC(=O)N1CCC[C@H]1C(=O)OCCCc1ccc(Cl)cc1)c1ccccc1` had a Ki of 6000 nM. The Ki values of the last two molecules are within 1.5-fold of each other. The result for `O=C(OCc1ccccc1)[C@@H]1CCCN1C(=O)NC12C[C@H]3C[C@@H](C1)C[C@@H](C2)C3` reads 2100 nM. The result for `O=C(OCCCc1ccccc1)[C@@H]1CCCN1C(=O)Nc1ccccc1` reads 820 nM. As for `Cc1ccc(S(=O)(=O)N2CCCCC2C(=O)OCCCc2ccc(Cl)cc2)cc1` (stereo not given), the inhibitory constant (Ki) is 4400 nM.

Molecule `COc1ccc(CCCOC(=O)[C@@H]2CCCN2/C(S)=N/C2CCCCC2)cc1OC` showed an inhibition constant (Ki) of 86 nM. To `COc1cc(CCCOC(=O)C2CCCCN2S(=O)(=O)c2ccccc2)cc(OC)c1` (stereo not given) belongs 480 nM; to `COc1ccc(CCCOC(=O)C2CCCCN2S(=O)(=O)Cc2ccccc2)cc1OC` (stereo not given), 47 nM; to `COc1cc(CCCOC(=O)C2CCCCN2S(=O)(=O)Cc2ccccc2)cc(OC)c1` (stereo not given), 120 nM.

In turn, `O=C(OCCCc1ccccc1)[C@@H]1CCCN1C(=O)NC12C[C@H]3C[C@@H](C1)C[C@@H](C2)C3` came in with an inhibition constant Ki of 1000 nM.

As for `O=C(OCCCc1ccc(Cl)cc1)[C@@H]1CCCN1C(=S)NC12C[C@H]3C[C@@H](C1)C[C@@H](C2)C3`, the Ki is 1500 nM. Consider `COc1ccc(CCCOC(=O)[C@@H]2CCCN2S(=O)(=O)Cc2ccccc2)cc1`, for which the Ki is 22 nM. For the molecule `COc1ccc(CCCOC(=O)C2CCCCN2S(=O)(=O)c2ccccc2)cc1OC` (stereo not given), the Ki came out at 180 nM. Molecule `O=C(OCCCc1ccc(Br)cc1)[C@@H]1CCCN1C(=O)NC12C[C@H]3C[C@@H](C1)C[C@@H](C2)C3` showed a Ki of 3100 nM. The result for `O=C(OCCc1ccccc1)[C@@H]1CCCN1C(=O)Nc1ccccc1` reads 1300 nM.

With `O=C(OCCCCc1ccccc1)[C@@H]1CCCN1C(=S)NC12C[C@H]3C[C@@H](C1)C[C@@H](C2)C3`, the affinity, expressed as Ki, was 7200 nM. To `COc1ccc(CCCOC(=O)C2CCCCN2C(=O)NC23CC4CC(CC(C4)C2)C3)cc1OC` (stereo not given) belongs 32 nM. Molecule `COc1cc(CCCOC(=O)C2CCCCN2S(=O)(=O)c2ccc(C)cc2)cc(OC)c1` (stereo not given) registered an inhibition constant (Ki) of 400 nM. Compared with the last molecule, the Ki is about 12-fold higher.

`C[C@@H](NC(=O)N1CCC[C@H]1C(=O)OCCCc1ccc(F)cc1)c1ccccc1` came in with an inhibition constant (Ki) of 4400 nM. The result for `O=C(OCCCc1ccc(Br)cc1)[C@@H]1CCCN1C(=S)NC12C[C@H]3C[C@@H](C1)C[C@@H](C2)C3` reads 6300 nM.

With `O=C(OCCCc1ccc(Cl)cc1)C1CCCCN1S(=O)(=O)c1ccccc1` (stereo not given), the affinity corresponds to a Ki of 3800 nM. With `O=C(OCCc1ccccc1)[C@@H]1CCCN1C(=O)NC12C[C@H]3C[C@@H](C1)C[C@@H](C2)C3`, the Ki came to 1300 nM. To `O=C(OCCc1ccccc1)[C@@H]1CCCN1C(=S)NC12C[C@H]3C[C@@H](C1)C[C@@H](C2)C3` belongs 47000 nM; to `COc1ccc(CCCOC(=O)C2CCCCN2S(=O)(=O)c2ccccc2)cc1` (stereo not given), 260 nM; to `O=C(OCCCc1ccccc1)[C@@H]1CCCN1C(=S)NC12C[C@H]3C[C@@H](C1)C[C@@H](C2)C3`, 5200 nM.

`O=C(OCCCc1ccc(F)cc1)C1CCCCN1S(=O)(=O)c1ccccc1` (stereo not given) had a Ki of 740 nM. `COc1ccc(CCCOC(=O)C2CCCCN2C(=O)NC23CC4CC(CC(C4)C2)C3)c(OC)c1` (stereo not given) returned an inhibitory constant (Ki) of 12 nM. The result for `O=C(OCCCc1ccc(Cl)cc1)[C@@H]1CCCN1C(=O)NC12C[C@H]3C[C@@H](C1)C[C@@H](C2)C3` reads 2300 nM; that for `O=C(OCCCc1ccc(F)cc1)[C@@H]1CCCN1C(=O)NC12C[C@H]3C[C@@H](C1)C[C@@H](C2)C3`, 1200 nM.
